Assay results reported in PubChem BioAssay AID1919016 (Molecular Pharmacology Branch, DTP, NCI, 2023).
Blank lines part the entries; values can stand above or below the compound they belong to.

System: NCI-H196 complex spheroid growth, percent test/control
Assay: Anticancer human tumor NCI-H196 cell line growth inhibition [AhR];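 note: seven days of drug exposure starting three days after plating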;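 for viability, T/C: 100% = DMSO vehicle control wells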
Settings: for IC50: curve of first compound; for viability, T/C: stronger effect = lower value
Procedure, shortened: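 Spheroids combined tumor cells with HUVEC endothelial cells and human MSCs as stroma. AhR antagonists were paired with standard or investigational drugs, each dosed in half-log steps down from near clinical Cmax, or from 10 microM where Cmax was unknown.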

[1] = second compound 0.1 µM, first compound 0.0316 µM
[2] = second compound 0.1 µM, first compound 0.1 µM
[3] = second compound 0.1 µM, first compound 0.316 µM
[4] = second compound 0.1 µM, first compound 1 µM
[5] = second compound 0.1 µM, first compound 3.16 µM
[6] = second compound 0.1 µM, first compound 10 µM
[7] = second compound 0.316 µM, first compound 0.0316 µM
[8] = second compound 0.316 µM, first compound 0.1 µM
[9] = second compound 0.316 µM, first compound 0.316 µM
[10] = second compound 0.316 µM, first compound 1 µM
[11] = second compound 0.316 µM, first compound 3.16 µM
[12] = second compound 0.316 µM, first compound 10 µM
[13] = second compound 1 µM, first compound 0.0316 µM
[14] = second compound 1 µM, first compound 0.1 µM
[15] = second compound 1 µM, first compound 0.316 µM
[16] = second compound 1 µM, first compound 1 µM
[17] = second compound 1 µM, first compound 3.16 µM
[18] = second compound 1 µM, first compound 10 µM
[19] = second compound 3.16 µM, first compound 0.0316 µM
[20] = second compound 3.16 µM, first compound 0.1 µM
[21] = second compound 3.16 µM, first compound 0.316 µM
[22] = second compound 3.16 µM, first compound 1 µM
[23] = second compound 3.16 µM, first compound 3.16 µM
[24] = second compound 3.16 µM, first compound 10 µM
[25] = second compound 10 µM, first compound 0.0316 µM
[26] = second compound 10 µM, first compound 0.1 µM
[27] = second compound 10 µM, first compound 0.316 µM
[28] = second compound 10 µM, first compound 1 µM
[29] = second compound 10 µM, first compound 3.16 µM
[30] = second compound 10 µM, first compound 10 µM

- IC50 (second compound 0.1 µM): 44.3 nM
- IC50 (second compound 0.316 µM): 34 nM
- IC50 (second compound 1 µM): 42 nM
- IC50 (second compound 3.16 µM): 40.2 nM
- IC50 (second compound 10 µM): 38.7 nM
Compound: O=C(C=Cn1cnc(-c2cc(C(F)(F)F)cc(C(F)(F)F)c2)n1)NNc1cnccn1 + Cc1cncc(-c2nc(NCCc3c[nH]c4ccccc34)c3ncn(C(C)C)c3n2)c1
- viability, T/C (second compound 0.1 µM, first compound 0.00949 µM): 75.3%
- viability, T/C (second compound 0.1 µM, first compound 0.03 µM): 65%
- viability, T/C (second compound 0.1 µM, first compound 0.0949 µM): 20.6%
- viability, T/C (second compound 0.1 µM, first compound 0.3 µM): 8.92%
- viability, T/C (second compound 0.1 µM, first compound 0.949 µM): 8.7%
- viability, T/C (second compound 0.1 µM, first compound 3 µM): 5.72%
- viability, T/C (second compound 0.316 µM, first compound 0.00949 µM): 73.5%
- viability, T/C (second compound 0.316 µM, first compound 0.03 µM): 52.7%
- viability, T/C (second compound 0.316 µM, first compound 0.0949 µM): 25.1%
- viability, T/C (second compound 0.316 µM, first compound 0.3 µM): 9.13%
- viability, T/C (second compound 0.316 µM, first compound 0.949 µM): 9.31%
- viability, T/C (second compound 0.316 µM, first compound 3 µM): 8.45%
- viability, T/C (second compound 1 µM, first compound 0.00949 µM): 71%
- viability, T/C (second compound 1 µM, first compound 0.03 µM): 59.2%
- viability, T/C (second compound 1 µM, first compound 0.0949 µM): 27.9%
- viability, T/C (second compound 1 µM, first compound 0.3 µM): 13%
- viability, T/C (second compound 1 µM, first compound 0.949 µM): 8.4%
- viability, T/C (second compound 1 µM, first compound 3 µM): 7.77%
- viability, T/C (second compound 3.16 µM, first compound 0.00949 µM): 80%
- viability, T/C (second compound 3.16 µM, first compound 0.03 µM): 59.4%
- viability, T/C (second compound 3.16 µM, first compound 0.0949 µM): 22.4%
- viability, T/C (second compound 3.16 µM, first compound 0.3 µM): 10.5%
- viability, T/C (second compound 3.16 µM, first compound 0.949 µM): 8.06%
- viability, T/C (second compound 3.16 µM, first compound 3 µM): 8.49%
- viability, T/C (second compound 10 µM, first compound 0.00949 µM): 65.2%
- viability, T/C (second compound 10 µM, first compound 0.03 µM): 62.8%
- viability, T/C (second compound 10 µM, first compound 0.0949 µM): 4.24%
- viability, T/C (second compound 10 µM, first compound 0.3 µM): 2.39%
- viability, T/C (second compound 10 µM, first compound 0.949 µM): 8.19%
- viability, T/C (second compound 10 µM, first compound 3 µM): 5.29%

- IC50 (second compound 0.1 µM): > 10000 nM
- IC50 (second compound 0.316 µM): > 10000 nM
- IC50 (second compound 1 µM): > 10000 nM
- IC50 (second compound 3.16 µM): > 10000 nM
- IC50 (second compound 10 µM): 2070 nM
Compound: NS(=O)(=O)OCC1CC(n2ccc3c(NC4CCc5ccccc54)ncnc32)CC1O (stereo not given) + Cc1ccccc1N=Nc1ccc(NC(=O)c2ccnn2C)c(C)c1
- viability, T/C [1]: 83.7%
- viability, T/C [2]: 84.2%
- viability, T/C [3]: 76.6%
- viability, T/C [4]: 55.9%
- viability, T/C [5]: 70.2%
- viability, T/C [6]: 70%
- viability, T/C [7]: 79.7%
- viability, T/C [8]: 81.2%
- viability, T/C [9]: 81.5%
- viability, T/C [10]: 67.4%
- viability, T/C [11]: 74.6%
- viability, T/C [12]: 61%
- viability, T/C [13]: 90.1%
- viability, T/C [14]: 87.6%
- viability, T/C [15]: 85.9%
- viability, T/C [16]: 60.6%
- viability, T/C [17]: 73.7%
- viability, T/C [18]: 60.8%
- viability, T/C [19]: 82.4%
- viability, T/C [20]: 90.7%
- viability, T/C [21]: 81.6%
- viability, T/C [22]: 61.5%
- viability, T/C [23]: 60.9%
- viability, T/C [24]: 58.8%
- viability, T/C [25]: 83.8%
- viability, T/C [26]: 87.1%
- viability, T/C [27]: 68.2%
- viability, T/C [28]: 55.5%
- viability, T/C [29]: 46.7%
- viability, T/C [30]: 47.4%

- IC50 (second compound 0.1 µM): > 10000 nM
- IC50 (second compound 0.316 µM): > 10000 nM
- IC50 (second compound 1 µM): > 10000 nM
- IC50 (second compound 3.16 µM): > 10000 nM
- IC50 (second compound 10 µM): > 10000 nM
Compound: COc1cc(Nc2ncc3c(n2)-c2ccc(Cl)cc2C(c2c(F)cccc2OC)=NC3)ccc1C(=O)O + Cc1ccccc1N=Nc1ccc(NC(=O)c2ccnn2C)c(C)c1
- viability, T/C [1]: 83.2%
- viability, T/C [2]: 94.4%
- viability, T/C [3]: 108%
- viability, T/C [4]: 107%
- viability, T/C [5]: 123%
- viability, T/C [6]: 116%
- viability, T/C [7]: 83.3%
- viability, T/C [8]: 89.3%
- viability, T/C [9]: 106%
- viability, T/C [10]: 118%
- viability, T/C [11]: 119%
- viability, T/C [12]: 115%
- viability, T/C [13]: 85.5%
- viability, T/C [14]: 88.9%
- viability, T/C [15]: 95.9%
- viability, T/C [16]: 94.2%
- viability, T/C [17]: 111%
- viability, T/C [18]: 104%
- viability, T/C [19]: 85.4%
- viability, T/C [20]: 86%
- viability, T/C [21]: 102%
- viability, T/C [22]: 97.5%
- viability, T/C [23]: 109%
- viability, T/C [24]: 117%
- viability, T/C [25]: 89.8%
- viability, T/C [26]: 88.4%
- viability, T/C [27]: 96.3%
- viability, T/C [28]: 91.1%
- viability, T/C [29]: 108%
- viability, T/C [30]: 104%
